Results: patent US20190365717A1, “TREATING PATHOLOGICAL CONDITIONS BY DIRECT AND INDIRECT TARGETING OF SIRPA-CD47 INTERACTION” (STICHTING HET NEDERLANDS KANKER INSTITUUT-ANTONI VAN …, priority 2017, published 2019)
One block for each compound: values may come before it.

What was measured:
HAP1 cells = experiment: Small molecule inhibition of glutaminyl cyclase: anti-CD47 clone CC2C6 binding, flow cytometry; type: cell-based, human
Protocol: (§1) Surface levels of CD47 were assessed by performing immunohistochemical staining cells with fluorochrome labelled antibodies directed against CD47 (clones CC2C6, 2D3, B6H12., see Table 1) at a dilution of 1:50 in PBS containing 0.5% w/v BSA (Sigma) and 0.2% w/v sodium azide (Sigma) (“FACS buffer”) for 30 minutes, at 4° C., protected from light. SIRPα binding to CD47 was assessed by incubating cells with recombinant extracellular domain of human SIRPα fused to human IgG ((SIRPα-Fc); Recombinant Human SIRP alpha/CD172a Fc Chimera Protein see Table 1) at a dilution of 1:50 in FACS buffer for 30 minutes, at 4° C., protected from light. After 1 wash with FACS buffer to remove unbound SIRPα-Fc, cells were immunostained with a fluorochrome labelled antibody against human IgG (HP6017, see Table 1) for 30 minutes, at 4° C., protected from light. After 2 washes with FACS buffer to remove unbound antibody, immunohistochemical staining intensity or binding intensity was analyzed on an LSRII (BD Bioscience).

[1] = tested on: HAP1, RKO, A375, A549 and DLD1 cells; conditions: PBD150 1000 microM, 72 hours, medium refreshed every 24 hours
Protocol: as §1
Next, HAP1, RKO, A375, A549 and DLD1 cells were treated for 72 hours with PBD150 (1000 microM) or vehicle and medium was refreshed every 24 hours.

human QPCTL = human QPCTL (Homo sapiens, UniProt Q9NXS2); conditions: cited from earlier work
[2] = Phase 1 study with 200 healthy young and elderly volunteers; cited from earlier work
QPCT and QPCTL = conditions: Phase 1 study with 200 healthy young and elderly volunteers; cited from earlier work
[3] = tested on: A375, A431, Raji, A549, DLD1, HAP1, RKO and SKBR3 cells; experiment: SEN177 and PQ912 treatment, cell surface binding of hSIRPα-Fc and anti-CD47 antibodies, flow cytometry; type: cell-based, human; set-up: dose or concentration left out as unconfirmed; conditions: refreshed every day, four days
Protocol: (§2) After indicated antibody stainings, cells were washed with FACS buffer to remove unbound antibody and DAPI was added to allow dead cell exclusion and samples were analyzed on an LSRII or LSRFortessa (BD Bioscience).
(§3) DMSO or inhibitor was refreshed every day and after four days, cells were analyzed by flow cytometry.

[4] = tested on: pyroglutamate-modified CD47 in A375 melanoma cells; experiment: Analysis of αCD47-CC2C6 / αCD47-B6H12 immunoprecipitates of HA-tagged CD47; type: cell-based, human; conditions: untreated versus SEN177-treated cells, 10 μM SEN177 for 16 h
Protocol: At the day of analysis, cells were starved in methionine- and cysteine-free medium for 1 h at 37° C. Subsequently, cells were pulse-labelled with 0.75 mCi/600 μL [^35S]Cys/[^35S]Met (PerkinElmer) for the indicated time period. Cells were washed with PBS to remove residual [^35S]Cys/[^35S]Met and then cultured in regular medium with 1 mM ‘cold’ methionine and cysteine for the indicated time period. Cells were lysed and [^35S]Cys/[^35S] incorporation was measured via TCA precipitation of aliquots of lysates on 3 MM Whatman paper and counting in a Perkin Elmer LSC 2800 ultima gold scintillation counter. Next, for pre-clearing and IP purposes, purified mouse IgG1 kappa isotype control (Biolegend, 400102), anti-human CD47 antibody B6H12.2 (Novus, NBP2-31106), and purified anti-human CD47 antibody CC2C6 (Biolegend, 323102) was bound to protein-G-coated Dynabeads (ThermoFisher Scientific) according to manufacturer's instructions. […] Next, immunoprecipitates were heated at 50° C. for 10 min with 2× Laemmli buffer and analyzed using a Novex NuPAGE Gel Electrophoresis System (Thermo Fisher Scientific). Gels were treated with 1 M Na salicylate pH 5.6 before drying and then analyzed on Fujifilm BAS-MP phosphor imager screens 4° C. Screens were analyzed on a lasser scanner Typhoon FLA 9500.

[5] = tested on: QPCTL-deficient lung cancer (A549) and epidermoid carcinoma (A431) cells; experiment: SEN177 treatment of QPCTL-deficient cells, SIRPα binding by flow cytometry; type: cell-based, human
Protocol: as §2, §3

[6] = tested on: B16F10 melanoma cells and Ba/F3-Her2 pro-B cells; experiment: SEN177 treatment of murine cells, mSIRPα-Fc and αmCD47-MIAP301 binding, flow cytometry; type: cell-based; conditions: SEN177, both cell lines
Protocol: as §2, §3

Ba/F3-Her2 cells [7] = experiment: ADCC of 51Cr-labeled Ba/F3-Her2 target cells by human effector cells; type: cell-based, murine; conditions: human neutrophils, with anti-Her2, 10 μM SEN177, 4 h 51Cr-release
Protocol: (§4) Briefly, 1×10^6 target cells were labelled with 100 μCi (3.7 MBq) ^51Cr for 2 h. After extensive washing, cell numbers were adjusted to 1×10^6/mL. The polymorphonuclear leukocyte (PMN) fraction from peripheral blood of healthy donors (UMC Utrecht, Utrecht) was isolated by Ficoll/Histopaque separation (GE Healthcare; Sigma-Aldrich). Effector cells and target cells were added to round-bottom microtiter plates (Corning Incorporated) (E:T ratio=40:1), in the presence of the indicated concentration of a Her2 antibody. After 4 h incubation at 37° C., ^51Cr release was measured. Percentage specific lysis was calculated using the following formula: ((experimental cpm—basal cpm)/(maximal cpm—basal cpm))×100, with maximal lysis determined in the presence of 3% triton and basal lysis determined in the absence of antibody and effector cells. […] All experiments were performed in triplicate.

Ba/F3-Her2 cells [8] = experiment: ADCC of 51Cr-labeled Ba/F3-Her2 target cells by mouse effector cells; type: cell-based; conditions: murine immune cells isolated from whole blood as effector cells, anti-Her2 IgA1
Protocol: as §4
In brief, to obtain mouse effector cells, blood was collected from pegylated granulocyte colony-stimulating factor (G-CSF)-stimulated human FcaRl transgenic Balb/c mice from the retro-orbital plexus into Li-heparin tubes. Erythrocytes were lysed by incubation in water for […], and total leukocytes were resuspended in medium (half the volume of the original blood volume). 50 μL of total leukocytes, containing ˜70% PMNs, were added per well.

[9] = tested on: short-term cultures of melanoma xenografts; experiment: SEN177 treatment of short-term melanoma PDX cell lines, FACS binding; type: cell-based, human; conditions: 10 μM SEN177 for 4 days, six cultures
Text: Cell lines: Short-term cell lines from primary melanoma patient-derived xenografts (PDX) were generated as described (Kemper et al., EMBO Mol. Med. 7, 1104-1118, 2015) and were a gift from D. Peeper and K. Kemper. […]

[10] = tested on: CD47 pyroglutamylation in HAP1 cells; experiment: QPCTL inhibitor assay: CD47 pyroglutamylation (CC2C6 / 2D3 staining); type: cell-based, human; conditions: 48 hours, 10-fold dilutions, maximum 500 μM
Protocol: An equal volume of HAP1 (200,000/well), A375 (50,000/well) or RKO (100,000/well) cells was added and QPCTL and CD47 knockout cells were taken along in control wells.
After 48 hours incubation at 37 degrees, 5% CO2, cells were washed once with PBS before releasing with 100 μl TrypIE dissociation reagent per well and transfer to V-bottom 96-well plates (Greiner Bio-One) pre-filled with 100 μl FACS buffer (10% FCS/PBS). Cells were spun 3′ at 3000 rpm, washed once with FACS buffer and again spun 3′ at 3000 rpm. Next, cells were incubated for 2 hours at 4 degrees with a mix of 1:500 FITC-conjugated anti-human CD47 clone 2D3 and 1:500 Alexa647-conjugated anti-human CD47 clone CC2C6 for the pyroglutamylation assays. Alternatively, cells were incubated with 50 μl 1:50 recombinant SIRPα-human Fc fusion protein in FACS buffer for the SIRPα assays. For the SIRPα assays, two wash steps followed by spinning 3′ at 3000 rpm and resuspending the cells in FACS buffer before spinning a final time and resuspending and incubating the pellet for 1 hour at 4 degrees in 100 μl 1:100 APC-conjugated rabbit-anti-human antibody. Cells of both assay were spun down and washed twice with FACS buffer to remove unbound antibody. Cells were again spun down and taken up in 300 μl FACS buffer before analyzed on a FACSAria III using FACS Diva software (BS Biosciences). The median fluorescence intensity (MFI) of each sample was linearly transformed to scale between the MFIs of wildtype and CD47 knockout cells in case of the 2D3 antibody and the wildtype and QPCTL knockout cells in case of the CC2C6 antibody.

recombinant human isoQC = target: T1, recombinant human isoQC (Homo sapiens, UniProt Q9NXS2); experiment: IsoQC assay (coupled H-Gln-AMC / pGAPase fluorescence assay); type: biochemical; conditions: 10 μM H-Gln-AMC, 1 hour at 37° C., maximum and ten- and hundredfold lower concentrations
T1 construct: enzymatically active region of human isoQC (S53-L382, Huang et al., JBC, 286, 12439-12449, 2011); GST with enterokinase site (N, cleaved yes); made in house; host or cells: E. coli, pET41(+) vector
Text: The Golgi luminal, enzymatically active region of human isoQC (S53-L382, Huang et al., JBC, 286, 12439-12449, 2011) was obtained by expression in E. coli of an N-terminally GST-Enterokinase, C-terminally 6× His tagged construct (“6× His” disclosed as SEQ ID NO: 15) in the pET41(+) vector and subsequent purification and enterokinase digestion. Absence of pyroglutamylating activity in an enzymatic dead variant that was cloned, expressed and purified in parallel ruled out that the purification strategy isolates any endogenously present pyroglutamylating activity.
Inhibition of isoQC activity was assessed by incubating 30 μl 50 mM Tris pH8.0 solutions containing 10 μM H-Gln-AMC (Bachem cat.no. 4003647.0100, dissolved in 25 mM HEPES), 1% DMSO and 750 pg/μl recombinant isoQC in the presence or absence of inhibitor for 1 hour at 37° C. A 5-minute incubation at 98° C. followed to stop the reaction and inactivate the enzyme. Next, 25 μl of the reaction was transferred to a 384-well plate containing 25 μl pGAPase enzyme (1:200 diluted in 50 mM Tris pH8.0, 10 mM Dithiothreitol (DTT), enzyme obtained from Qiagen, cat. no. 34342) and incubated for 10 minutes at 37° C. before reading the fluorescence using a SpectraMax Id3 platereader with excitation wavenlength set at 380 nm and emission at 450 nm. Readings were corrected by subtracting background signal from a control well containing no isoQC enzyme and subsequently normalized by dividing through the signal of a well containing enzyme but no inhibitor.

T1 sequence (Q9NXS2 53-382): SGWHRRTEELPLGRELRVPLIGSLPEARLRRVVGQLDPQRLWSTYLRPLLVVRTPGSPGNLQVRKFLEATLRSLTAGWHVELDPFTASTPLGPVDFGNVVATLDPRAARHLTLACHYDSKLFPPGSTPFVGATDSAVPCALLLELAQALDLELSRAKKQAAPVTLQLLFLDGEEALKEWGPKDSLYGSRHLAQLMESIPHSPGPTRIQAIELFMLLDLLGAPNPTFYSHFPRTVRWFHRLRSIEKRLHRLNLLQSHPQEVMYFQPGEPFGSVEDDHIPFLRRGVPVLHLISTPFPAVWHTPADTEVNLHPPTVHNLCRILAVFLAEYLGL
Chain of human QPCTL (Q9NXS2 whole entry): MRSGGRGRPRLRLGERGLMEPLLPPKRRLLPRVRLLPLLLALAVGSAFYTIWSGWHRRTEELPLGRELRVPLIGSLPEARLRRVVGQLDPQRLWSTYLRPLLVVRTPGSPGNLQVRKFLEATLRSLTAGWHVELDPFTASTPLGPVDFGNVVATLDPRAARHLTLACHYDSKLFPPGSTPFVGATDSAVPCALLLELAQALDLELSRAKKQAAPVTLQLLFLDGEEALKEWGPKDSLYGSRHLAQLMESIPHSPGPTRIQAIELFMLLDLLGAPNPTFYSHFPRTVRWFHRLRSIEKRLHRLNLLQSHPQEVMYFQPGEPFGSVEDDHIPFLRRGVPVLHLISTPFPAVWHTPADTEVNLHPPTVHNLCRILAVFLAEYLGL

SMILES: COc1ccc(NC(=S)NCCCn2ccnc2)cc1OC [PBD150]
CC2C6 binding after withdrawal (HAP1 cells; HAP1 cells subsequently cultured 48 hrs without PBD150): restored to normal levels
CC2C6 bound to the surface (HAP1 cells; HAP1 cells, 72 hours, PBD150 1000 microM): decreased
2D3 binding [1]: unchanged
CC2C6 binding [1]: decreased
SIRPα-Fc binding [1]: decreased
Ki (human QPCTL): 60 nM

SMILES: CCCOc1ccc([C@H]2CNC(=O)N2c2ccc3[nH]cnc3c2)cc1 [PQ912, (S)-1-(1H-benzo[d]imidazole-5-yl)-5-(4-propoxyphenyl)imidazolidin-2-one]
safety and tolerability [2]: safe and well-tolerated
level of QPCT and QPCTL inhibition (QPCT and QPCTL): high level

SMILES: Cn1cnnc1C1CCN(c2ncccc2-c2ccc(F)nc2)CC1 [SEN177]
CD47 surface levels [3]: unaffected
SIRPα-Fc staining ([3]; 8 out of 8 cell lines tested, same extent as in QPCTL deficient cells): reduced
pyroglutamate-modified CD47 [4]: near-complete inhibition
SIRPα binding [5]: did not further reduce
binding of SIRPα (mSIRPα-Fc) [6]: reduced
total CD47 surface levels [6]: without altering
neutrophil-mediated lysis of tumor cells (Ba/F3-Her2 cells [7]): synergized
lysis of tumor cells by murine immune cells (Ba/F3-Her2 cells [8]): same effects
CD47 protein levels [9]: unaltered
Binding of SIRPα ([9]; versus untreated cells): significantly decreased

Now from value to compound, other results behind:

isoQC activity (recombinant human isoQC): did show some activity
SMILES: O=C(C1=C(O)C(=O)N(c2ccc3[nH]cnc3c2)C1c1ccc(Cl)c(Cl)c1)C1CCCCC1 (centres unmarked) [compound 000015, 1-(1H-Benzoimidazol-5-yl)-4-cyclohexanecarbonyl-5-(3,4-dichloro-phenyl)-3-hydroxy-1,5-dihydro-pyrrol-2-one]
pE-CD47 signal (antibody clone CC2C6) [10]: did not show convincing reactivity

isoQC activity (recombinant human isoQC): did show some activity
SMILES: O=C(C1=C(O)C(=O)N(c2ccc3[nH]cnc3c2)C1c1cccc(F)c1F)c1ccccc1 (centres unmarked) [compound 000033, 1-(1H-benzo[d]imidazol-5-yl)-4-benzoyl-5-(2,3-difluorophenyl)-3-hydroxy-1H-pyrrol-2(5H)-one]
pE-CD47 signal (antibody clone CC2C6) [10]: did not show convincing reactivity

isoQC activity (recombinant human isoQC): did show some activity
SMILES: Cc1ccc(C2C(=S)NC(=O)N2c2ccc3[nH]cnc3c2)c(F)c1F (centres unmarked) [compound 000040, 1-(1H-benzo[d]imidazol-5-yl)-5-(2,3-difluoro-4-methylphenyl)-4-thioxoimidazolidin-2-one]
pE-CD47 signal (antibody clone CC2C6) [10]: did not show convincing reactivity

isoQC activity (recombinant human isoQC): did show some activity
SMILES: Cc1ccc(C2C(c3ccc(O)cc3)=C(O)C(=O)N2CCCn2ccnc2)cc1 (centres unmarked) [compound 000046, 3-Hydroxy-4-(4-hydroxy-phenyl)-1-(3-imidazol-1-yl-propyl)-5-p-tolyl-1,5-dihydro-pyrrol-2-one]
pE-CD47 signal (antibody clone CC2C6) [10]: did not show convincing reactivity
